Where a name gives a salt, the structure may show the parent alone.

As a reminder, the melting point is the temperature of the solid-liquid transition. Regarding `Cn1[nH]c2c(c1=O)CCCN2c1ccc(Cl)cc1` [Compound 1-17, 7-(4-chloro-phenyl)-2-methyl-1,2,4,5,6,7-hexahydro-pyrazolo[3,4-b]pyridin-3-one], the melting point lay within 219.5 to 221.6 °C. As to `Cc1cc(C)c(N2CCCc3c2nn(C)c3C(=O)O)c(Cl)c1` [Compound 5-1, 7-(2-Chloro-4,6-dimethylphenyl)-2-methyl-4,5,6,7-tetrahydro-2H-pyrazolo[3,4-b]pyridine-3-carboxylic acid], the melting point lay in the range of 247.8 to 248.3 °C.

With `CCCC(O)(c1cccs1)c1c2c(nn1C)N(c1c(C)cc(C)cc1C)CCC2` (stereo not shown) [Compound 2-3, 1-[2-Methyl-7-(2,4,6-trimethylphenyl)-4,5,6,7-tetrahydro-2H-pyrazolo[3,4-b]pyridin-3-yl]-1-thiophen-2-ylbutan-1-ol], the melting point lay in the range of 175.9 to 178.4 °C. `Cc1cc(C)c(N2CCCc3c2nn(C)c3N)c(C)c1` [Compound 5-52, 2-methyl-7-(2,4,6-trimethyl-phenyl)-4,5,6,7-tetrahydro-2H-pyrazolo[3,4-b]pyridin-3-ylamine]: the melting point is 208.8 to 210.9 °C. With `Cn1nc2c(c1N)CCCN2c1ccc(Cl)cc1Cl` [Compound 5-43, 7-(2,4-Dichloro-phenyl)-2-methyl-4,5,6,7-tetrahydro-2H-pyrazolo[3,4-b]pyridin-3-ylamine] the figure was 176.9 to 178.9 °C. For `CCC(CC)Nc1c2c(nn1C)N(c1c(C)cc(C)cc1C)CCC2` [Compound 5-36, (1-Ethylpropyl)-[2-methyl-7-(2,4,6-trimethyl-phenyl)-4,5,6,7-tetrahydro-2H-pyrazolo[3,4-b]pyridin-3-yl]-amine] the value was 99.3 to 104.9 °C.

For the compound `CCCC(O)(CCC)c1c2c(nn1C)N(c1c(C)cc(C)cc1C)CCCC2` [Compound 2-4, 4-[2-Methyl-8-(2,4,6-trimethylphenyl)-2,4,5,6,7,8-hexahydro-1,2,8-triazaazulen-3-yl]heptan-4-ol], the melting point was in the range of 87 to 91.1 °C. With `Cn1[nH]c2c(c1=O)CCCN2c1ccc(Cl)cc1Cl` [Compound 1-16, 7-(2,4-dichloro-phenyl)-2-methyl-1,2,4,5,6,7-hexahydro-pyrazolo[3,4-b]pyridin-3-one] the figure was 98 to 100.5 °C; with `COCCC(O)(COC)c1c2c(nn1C)N(c1c(C)cc(C)cc1C)CCC2` (stereo not shown) [Compound 2-7, 1,4-Dimethoxy-2-[2-methyl-7-(2,4,6-trimethylphenyl)-4,5,6,7-tetrahydro-2H-pyrazolo[3,4-b]pyridin-3-yl]butan-2-ol], 107.9 to 110.9 °C; with `Cc1cc(C)c(N2C(=O)CCc3c2nn(C)c3Br)c(C)c1` [Compound 9-4, 3-Bromo-2-methyl-7-(2,4,6-trimethyl-phenyl)-2,4,5,7-tetrahydro-pyrazolo[3,4-b]pyridin-6-one], 256.8 to 258 °C. With `Cc1cc(C)c(N2CCCc3c2nn(C)c3NC(=O)OC(C)(C)C)c(Cl)c1` [Compound 5-3, [7-(2-Chloro-4,6-dimethylphenyl)-2-methyl-4,5,6,7-tetrahydro-2H-pyrazolo[3,4-b]pyridin-3-yl]carbamic acid tert-butyl ester] the figure was 171.4 to 175.7 °C; with `CCCN(CC1CC1)C(=O)c1c2c(nn1C)N(c1c(C)cc(C)cc1Cl)CCC2` [Compound 7-1, 7-(2-Chloro-4,6-dimethylphenyl)-2-methyl-4,5,6,7-tetrahydro-2H-pyrazolo[3,4-b]pyridine-3-carboxylic acidcyclopropylmethylpropyl amide], 120.6 to 122 °C; with `Cc1cc(C)c(N2CCCc3c2nn(C)c3C#N)c(C)c1` [Compound 2-22, 2-Methyl-7-(2,4,6-trimethyl-phenyl)-4,5,6,7-tetrahydro-2H-pyrazolo[3,4-b] pyridine-3-carbonitrile], 128.5 to 136.6 °C. For `COCC(=O)Nc1c2c(nn1C)N(c1c(C)cc(C)cc1C)CCC2` [Compound 7-4, 2-Methoxy-N-[2-methyl-7-(2,4,6-trimethyl-phenyl)-4,5,6,7-tetrahydro-2H-pyrazolo[3,4-b]pyridin-3-yl]acetamide] the value was 133.8 to 135 °C. With `Cn1nc2c(c1Cl)CCCN2c1ccc(Cl)cc1` [Compound 1-10, 3-chloro-7-(4-chloro-phenyl)-2-methyl-4,5,6,7-tetrahydro-2H-pyrazolo [3,4-b]pyridine], the melting point was in the range of 96.5 to 97.5 °C. For `CCCC(c1cccs1)c1c2c(nn1C)N(c1c(C)cc(C)cc1C)CCC2` (stereo not shown) [Compound 4-3, 2-Methyl-3-(1-thiophen-2-ylbutyl)-7-(2,4,6-trimethylphenyl)-4,5,6,7-tetrahydro-2H-pyrazolo[3,4-b]pyridine] the value was 87.6 to 90.3 °C; for `CCCN(CCC)c1c2c(nn1C)N(c1c(C)cc(C)cc1Cl)CCC2` [Compound 5-5, [7-(2-Chloro-4,6-dimethylphenyl)-2-methyl-4,5,6,7-tetrahydro-2H-pyrazolo[3,4-b]pyridin-3-yl]dipropylamine], 90 to 91 °C. For `CCCN(CCCC#N)c1c2c(nn1C)N(c1c(C)cc(C)cc1C)CCC2` [Compound 5-48, 4-{[2-Methyl-7-(2,4,6-trimethyl-phenyl)-4,5,6,7-tetrahydro-2H-pyrazolo [3,4-b]pyridin-3-yl]-propyl-amino}-butyronitrile] the value was 108.3 to 111 °C; for `Cn1nc2c(c1Br)CCCN2c1c(Cl)cc(Cl)cc1Cl` [Compound 1-6, 3-Bromo-2-methyl-7-(2,4,6-trichloro-phenyl)-4,5,6,7-tetrahydro-2H-pyrazolo[3,4-b]pyridine], 100 to 101 °C. The compound `Cc1cc(C)c(N2CCCc3c2nn(C)c3CN2CCc3ccccc3C2)c(C)c1` (as salt: hydrochloride) [Compound 7-5, 2-[2-Methyl-7-(2,4,6-trimethyl-phenyl)-4,5,6,7-tetrahydro-2H-pyrazolo[3,4-b]pyridin-3-ylmethyl]-1,2,3,4-tetetrahydroisoquinolinedihydrochloride] gave a melting point of 236.4 to 241 °C.

As for `CCCC(O)(CCC)c1c2c(nn1C)N(c1c(C)cc(C)cc1C)CCC2` [Compound 2-2, 4-[2-Methyl-7-(2,4,6-trimethylphenyl)-4,5,6,7-tetrahydro-2H-pyrazolo[3,4-b]pyridin-3-yl] heptan-4-ol], the melting point was 126 to 127.9 °C.

The compound `Cn1nc2c(c1Br)CCCN2c1ccc(Cl)cc1` [Compound 1-8, 3-Bromo-2-methyl-7-(4-chloro-phenyl)-4,5,6,7-tetrahydro-2H-pyrazolo[3,4-b]pyridine] gave a melting point of 113.8 to 114.9 °C. For `COc1cccc(OC)c1-c1c2c(nn1C)N(c1c(C)cc(C)cc1C)CCC2` [Compound 9-6, 3-(2,6-Dimethoxy-phenyl)-2-methyl-7-(2,4,6-trimethyl-phenyl)-4,5,6,7-tetrahydro-2H-pyrazolo[3,5-b]pyridine] the value was 169.9 to 172.8 °C; for `Cc1cc(C)c(N2CCCc3c2nn(C)c3Br)c(C)c1` [Compound 1-3, 3-Bromo-2-methyl-7-(2,4,6-trimethyl-phenyl)-4,5,6,7-tetrahydro-2H-pyrazolo[3,4-b]pyridine], 94.6 to 97.9 °C; for `C=Cc1c2c(nn1C)N(c1ccc(Cl)cc1Cl)CCC2` [Compound 3-7, 7-(2,4-Dichloro-phenyl)-2-methyl-3-vinyl-4,5,6,7-tetrahydro-2H-pyrazolo[3,4-b]pyridine], 99.6 to 100.6 °C.
